Measurements from patent US20020090619A1, “Methods for identifying mitochondrial divalent cation transporters” (priority 2000, published 2002).

Key:
yeast mitochondria [1] = assay: Membrane potential ΔΨ of isolated yeast mitochondria (safranin O); assay type: biochemical, Saccharomyces cerevisiae
Experimental: (§1) The yeast strain W303-1A (Saccharomyces cerevisiae) was grown aerobically at 30° C. in a medium containing 2% lactate, 1% yeast extract, 2% peptone, 0.05% dextrose, and 0.01% adenine at pH 5.0, and cells were harvested during the logarithmic phase (A600=1.8−2.2). Mitochondria were isolated from spheroplasts as previously described (Jung et al., 1997 J. Biol. Chem. 272:21104), except that 0.6 M sucrose was used in the homogenization medium instead of 0.6 M mannitol (Daum et al., 1982 J. Biol. Chem. 257:13028). The resulting preparations were maintained on ice and were suspended in 0.6 M mannitol 20 mM HEPES (K+) (pH 6.8), containing 0.75 mg/ml BSA and 0.1 mM EGTA. Protein concentration was determined by a reduced volume Biuret method in which 50 μl of the final preparation were solubilized by adding an equal volume of 10% deoxycholate (Na+), with 0.4 ml of Biuret reagent added to the resulting mixture. BSA was employed as the standard.
Unless otherwise noted, mitochondria were incubated at 1 mg protein/ml and at approximately 25° C. in a medium that contained 0.6 M mannitol, 10 mM Pi (K+), 10 mM Hepes (TEA+), pH 7.2, plus 1 mM ethanol as an oxidizable substrate. Compounds having a low solubility in water were added from stock solutions prepared in methanol or DMSO. Ca2+ transport and membrane potential were monitored using the indicating dyes antipyrylazo III (ΔA720-790) and safranin O (ΔA511-533), respectively (Akerman et al., 1976 FEBS Lett. 68:191; Scarpa et al., 1978 Biochem. 17:1378). An SLM Aminco DW-2C spectrophotometer operated in the dual wavelength mode was employed for these purposes. The same instrument, operated in split beam mode, was used to monitor mitochondrial swelling as a decrease in apparent absorbance of mitochondrial suspensions at 540 nm. Oxygen consumption data were obtained using a Clark-type electrode in parallel experiments. Atomic absorption spectroscopy was utilized to monitor the transport of other cations by yeast mitochondria. Briefly, samples were taken at appropriate times and the mitochondria were rapidly sedimented in a microcentrifuge. After carefully removing supernatants, the pellets were solubilized with 2 N percholoric acid (overnight) and centrifuged a second time. The resulting supernatants were diluted with an appropriate volume of distilled water and the concentration of the cation in question was subsequently determined.

yeast mitochondria [2] = assay: ETH 129 mediated Ca2+ transport in isolated yeast mitochondria (antipyrylazo III); assay type: biochemical, Saccharomyces cerevisiae; conditions: BSA 0.5 mg/ml, 60 μM CaCl2, 3.6 μM ETH 129, increasing oleate, FIG. 14
Experimental: as §1, with “BSA was employed as the standard.” left out
Unless otherwise noted, mitochondria were incubated at 1 mg protein/ml and at approximately 25° C. in a medium that contained 0.6 M mannitol, 10 mM Pi (K+), 10 mM Hepes (TEA+), pH 7.2, plus 1 mM ethanol as an oxidizable substrate. […] Ca2+ transport and membrane potential were monitored using the indicating dyes antipyrylazo III (ΔA720-790) and safranin O (ΔA511-533), respectively (Akerman et al., 1976 FEBS Lett. 68:191; Scarpa et al., 1978 Biochem. 17:1378). […]

[3] = ETH 129 mediated cation transport into Quin-2 loaded POPC vesicles; assay type: biochemical; conditions: 1.0 mM CaCl2, no Val, FIG. 5
Experimental: Unilamellar vesicles loaded with Quin-2 were prepared from 1-palmitoyl-2-oleoyl-sn-glycerophosphatidylcholine (POPC) by freeze-thaw extrusion (Erdahl et al., 1994 Biophys. J. 66:1678; Erdahl et al., 1995 Biophys. J. 69:2350). The formation medium contained 5 mM Quin-2 (K+), 10 mM Hepes (K+), pH 7.00, and 100 mM KCl. A high internal K+ concentration was sought to allow the generation of membrane potentials of varying magnitude (see below). The preparations obtained were applied to Sephadex™ G-50 mini-columns (Pharmacia, Piscataway N.J.) and eluted by low speed centrifugation (Fry et al., 1978 Anal. Biochem. 90:809), to replace the external medium with a 10 mM Hepes buffer (Na+), pH 7.00 (Erdahl et al., 1994 Biophys. J. 66:1678; Erdahl et al., 1995 Biophys. J. 69:2350). The nominal concentration of POPC in final preparations was determined as lipid phosphorus (Bartlett, 1959 J Biol. Chem. 234:466) and was near 80 mM. The average diameter of these vesicles was 71 nm as determined by freeze-fracture electron microscopy (Chapman et al., 1990 Chem. Phys. Lipids 55:73). They contained entrapped K+ at approximately 125 mM, as determined by atomic absorption spectroscopy, and Quin-2 at approximately 6 mM. The latter value was determined by titrating lysed vesicles with a standard solution of CaCl2 and was about one third of the expected value (Erdahl et al., 1995 Bipohys. J. 69:3250). The high solute level in the formation medium reduced the efficiency of Quin-2 entrapment by reducing the effectiveness of a freeze-thaw driven solute concentrating mechanism that normally elevates the internal concentrations of solutes, relative to the external medium (Chapman et al., 1990 Chem. Phys. Lipids 55:73; Chapman et al., 1990 Chem. Phys. Lipids 60:201).
POPC vesicles containing Quin-2 were utilized at a nominal phospholipid concentration of 1.0 mM, and at 25° C. The external medium contained polyvalent cation salts as described below, 100 mM NaCl, or mixtures of NaCl and KCl totaling […], and 10 mM Hepes, pH 7.00, unless otherwise noted. The medium pH was adjusted with NaOH that had been passed over Chelex 100 columns to remove contaminating cations (Erdahl et al., 1994 Biophys. J. 66:1678). In most cases an inside negative membrane electrical potential was present during the experiments. This was generated by the presence of 0.5 μM valinomycin (Val), which transports K+ out of the vesicles electrogenically (Erdahl et al., 1994 Biophys. J. 66:1678). The magnitude of the potential was controlled by varying the concentration ratio of Na+ to K+ in the external medium. A TPP+electrode was used to measure the potential (Broekemeier et al, 1998 Biochem. 37:13059), and thereby to verify that the calculated values were obtained. For these purposes the incubation medium contained 2.0 μM TPP.Cl and the entrapped volume was taken to be 2.02 μl/ml at a nominal POPC concentration of 1.0 mM (Chapman et al., 1990 Chem. Phys. Lipids 55:73).
Val was omitted when an imposed membrane potential was not desired, or in some cases 5 μM of the protonophore carbonyl cyanide m-chlorophenylhydrazone (CCP) was present instead of Val.
The transport of polyvalent cations was monitored by difference absorbance measurements which detected formation of the Quin-2:cation complex within the vesicle lumen. An Aminco DW2a spectrophotometer operated in the dual wavelength mode was employed. In addition, an Oriel No. 59800 band pass filter was used between the cuvette and the beam scrambler-photomultiplier assembly to prevent detection of the fluorescent light emitted by Quin-2. The sample wavelength for all cations was 264 nm. The reference wavelengths were at an isosbestic point in the Quin-2/Quin-2:cation complex difference spectrum of interest. These wavelengths varied slightly from cation to cation, as previously described (Erdahl et al., 1996 Biochem. 35:13817). […]

[4] = system: isolated yeast mitochondria; assay: Ca2+ transport in isolated yeast mitochondria expressing aequorin (luminescence); assay type: biochemical, Saccharomyces cerevisiae; conditions: FIG. 24
Experimental: For preculture, the transformant was inoculated into 50 ml of SC-U plus 2% glucose, and incubated in an air shaker at 180 rpm and 30° C. At 24 hr, the preculture was transferred to 500 ml of a medium containing 1% yeast extract, 2% peptone, 2% lactate, 1% galactose, 0.012% adenine, pH 5 w/NaOH, and growth was continued under conditions which were otherwise the same. Cells were harvested after an additional 24 hr, spheroplasts were prepared using zymolyase, and mitochondria were isolated by the method of Daum et al. (1982) as previously described (Jung et al., 1997). The final pellet was resuspended at ˜20 mg protein/ml in 0.6 M mannitol, 20 mM HEPES (K^+ salt, pH 6.8). Apoaequorin in the intact or disrupted mitochondria was reconstituted by incubation with coelenterazine as described above for cells.
For most experiments, the mitochondria were present at 0.4 mg protein/ml in a standard medium that contained 0.3 M KCl, 20 mM HEPES, (K^+ salt, pH 7.10), 10 mM KH2PO4, 2 mM EGTA, and 2 mM MgCl2. Other additions are described in greater detail below. Ca^2+ buffers were formed by adding various amounts of CaCl2 to this EGTA containing medium. The free Ca^2+ concentrations which resulted were calculated using a computer program (Brooks et al., 1992 Anal. Biochem. 201:119).
Luminescence measurements were carried out in 6×50 mm culture tubes, using a total volume of 0.3 ml, and were started by injection of 5-20 μl of mitochondria or cells. A SAI model 3000 integrating photometer was employed, with AJD sampling at 0.4 seconds intervals driven by Asyst software. Values were transformed into corresponding Ca^2+ concentrations by computer assisted calculations based upon published calibration methods (Allen et al., 1977 Science 195:996; Brini et al., 1995 J. Biol. Chem. 270:9896). For each value, the ratio of observed luminescence (L) to the potential luminescence remaining (Lmax) was calculated, and compared to a calibration curve which relates this ratio to the free Ca^2+ concentration. Thus, complete calibrated progress curves were generated. The total luminescence available initially (Ltotal) must be known and was determined in separate experiments, wherein a saturating Ca^2+ concentration (20 μM) is employed to discharge the aequorin completely. This value allows Lmax to be calculated at any time, as Ltotal minus the sum of luminescence that already occurred.
The calibration data were obtained at an ionic strength of 335 mM and in the presence of 1 mM Mg^2+, to mimic conditions in the mitochondrial matrix, because both factors influence the affinity of aequorin for Ca2+ (Cobbold et al., 1987 Biochem. J. 248:313). Luminescence values were corrected for low background values that are obtained when Ca^2+ is absent before conducting further calculations.

[5] = system: Saccharomyces cerevisiae strain K473; assay: Growth inhibition by Ca2+ of pmc1 mutant yeast; assay type: cell-based; conditions: YPD medium, 30° C., 22 hr; read-out: 50% decrease in relative growth (IC50)
Experimental: This example describes growth inhibition by Ca^2+ of Saccharomyces cerevisiae strain K473, a pmc1 mutant lacking function in a vacuolar Ca2+ ATPase (Cunningham et al., 1996, Molec. Cell. Biology 16:2226-37; Cunningham et al., 1994 J. Cell Biol. 124:351-363). The strain was grown at 30° C. on standard YPD medium supplemented with 0, 50, 100, 200 or 300 mM CaCl2, as indicated. […]

[6] = system: PMC1/PMR1 double ATPase mutant cells; conditions: Cunningham et al., 1994; cited from earlier work

**Q.** For CCCCCCCC/C=C\CCCCCCCC(=O)O [oleate, oleic acid], which “suppression of ΔΨ during titration with exogenous oleate” value (yeast mitochondria [1]; ETH 129, free Ca2+ and BSA available, no EGTA, FIG. 16) is on record?
**A.** began immediately

**Q.** And the “oleate level above which ΔΨ is depressed” value (yeast mitochondria [1]; excess EGTA (2 mM), ETH 129, CaCl2, BSA present, FIG. 16)?
**A.** exceeded 15 nmol/mg protein

**Q.** And the “effect of exogenous oleate on ETH 129 mediated Ca2+ accumulation” value (yeast mitochondria [2])?
**A.** first inhibited further accumulation and then caused a reversal of the transport that had already occurred

**Q.** And the “activation of ETH 129 mediated Ca2+ transport” value [3]?
**A.** inability of oleate (a lipophilic fatty acid anion) to substitute for CCP

**Q.** For [Ca+2] [Ca2+], which “external Ca2+ giving half-maximal rate of change in matrix Ca^2+” value ([4]; nonrespiring mitochondria) is on record?
**A.** 0.82 µM

**Q.** What about the “external Ca2+ giving half-maximal rate of change in matrix Ca^2+” value ([4]; respiring mitochondria (0.5 mM ethanol)) of the same compound?
**A.** 1.0 µM

**Q.** What about the “effect on ΔΨ, agent alone” value (yeast mitochondria [1]; BSA absent, FIG. 11B) of the same compound?
**A.** little effect

**Q.** What about the IC50 [5] of the same compound?
**A.** 92 mM

**Q.** What about the “cytostatic Ca^2+ concentrations” value [6] of the same compound?
**A.** ≤ 300 µM
